One experiment concerns Aspergillus fumigatus. The experiment can be described thus: Minimum inhibitory concentration in liquid medium, micro method (NCCLS M27-A). Particulars: Aspergillus fumigatus; at least 80% inhibition of growth, read after 48-72 h at 37° C., RPMI 1640. The class given is cell-based.
In another experiment the target is AKT kinase (Homo sapiens, UniProt P31749). Briefly: Assay for inhibition of AKT activity. In kind it is biochemical. Particulars: fluorescence polarization, ATP 80 μM; read-out: IC50s expressed as micromolar. The protocol:
The inhibition of the kinase activity is determined by fluorescence polarization, the AKT kinase phosphorylates a peptide detected by adding an anti-phosphopeptide antibody coupled to a fluorescent label.
The assay is carried out in a final volume of 30 μl; all the reagents are prepared in a buffer: • 50 mM HEPES pH 7.5 • 0.03% triton X100 • 10 mM MgCl2 • 5% Glycerol • 1 mM DTT 10 μl of the 10-times concentrated inhibitor are added to 5 μl of enzyme (20 ng final concentration), and 5 μl of peptide (1 μM final concentration) and 10 μl of ATP (80 μM. final concentration) are added.
In general terms: Polarisation of emitted light reports the rotation of a fluorescent probe.

The source of these data is patent US7476670B2, “Purine derivatives, method for preparing, pharmaceutical compositions and novel use” (Aventis Pharma S.A., priority 2003, dated 2009).

As usually defined, the MIC is the smallest concentration in the dilution series that meets the test's criterion for growth inhibition. A high value points to a need for much substance.

Chain of AKT kinase (P31749 whole entry): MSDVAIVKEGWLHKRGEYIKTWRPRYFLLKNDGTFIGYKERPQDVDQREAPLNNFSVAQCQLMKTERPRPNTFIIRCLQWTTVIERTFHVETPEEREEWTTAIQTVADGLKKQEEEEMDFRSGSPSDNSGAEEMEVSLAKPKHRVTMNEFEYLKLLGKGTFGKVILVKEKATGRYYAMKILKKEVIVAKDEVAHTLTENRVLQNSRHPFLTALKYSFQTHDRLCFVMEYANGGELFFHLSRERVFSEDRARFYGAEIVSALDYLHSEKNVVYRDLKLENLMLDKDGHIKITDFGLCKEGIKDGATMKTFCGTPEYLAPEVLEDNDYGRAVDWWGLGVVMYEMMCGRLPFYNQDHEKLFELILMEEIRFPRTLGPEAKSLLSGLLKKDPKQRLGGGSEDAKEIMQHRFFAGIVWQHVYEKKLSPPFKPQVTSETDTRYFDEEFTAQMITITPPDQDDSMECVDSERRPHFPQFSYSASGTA

`Cl.N[C@H]1CC[C@H](Nc2nc(-n3cnc4cc(Cl)c(Cl)cc43)c3nc[nH]c3n2)CC1` [Example 8, Trans-N-[6-(5,6-dichloro-1H-benzimidazol-1-yl)-9H-purin-2-yl]-1,4-cyclohexanediamine hydrochloride] yielded an MIC in the experiment with Aspergillus fumigatus of 32 mg/L. In addition, the IC50 at AKT kinase was 0.46 µM.
